Experimental data reported in patent publication US9428552B2, “Stem cell mobilization and tissue repair and regeneration” (Wellstat Therapeutics Corporation, priority 2012, dated 2016).
“Also recorded” adds a separate entry of the source. Ends that are not written are not given here. Peptide text beside a SMILES is read from it.

Key:
[1] = system: EML-Cl cells; assay: CFU-GEMM number of EML cells after 3 hr serum and SCF deprivation; format: cell-based, murine; conditions: for rescue of CFU-GEMM: serum and SCF deprivation, 10 μM
Experimental: Erythroid myeloid lymphoid (EML) cells are an established multipotent hematopoietic precursor cell line (EML-Cl) that can be maintained in medium including stem cell factor (SCF) and Horse serum (HS). When plated in methylcellulose with cocktail of growth factors EML cells form mixed colonies (CFUmix or CFU-GEMM) containing a mix of erythroid and myeloid cells that can be enumerated after 7 days of incubation.
Starvation of EML-Cl cell line cells of serum and SCF during 3 hr causes majority of CFUmix to develop apoptosis and die, which decreases their number growing in methylcellulose substantially.
EML cells were grown in IMDM with 10% HS and 100 ng/ml of SCF in IMDM and used for all experiments in exponential growth phase.
Cells were washed from serum and growth factor with IMDM two times, counted and placed into 12 ml polypropylene tubes 2×10^6 cells in 2 ml for 3 hr incubation at t-37° C. and 5% CO2.
Cell suspensions after the incubation were centrifuged, diluted 5 times with IMDM and counted using a hemacytometer. Cells were adjusted to 10^3 cells/mL in IMDM and cell suspension was placed into 50 mL tubes with 4.5 mL of Methylcellulose M3434 mixed well and seeded into 35-mm Petri dishes (Falcon BD351008) at 1 mL/dish. Cells were incubated at 37° C., 5% CO2.
CFU were scored using an inverted microscope after 7 days of incubation.

[2] = system: CFU-GEMM and CFU-GM; assay: Mobilization of stem cells into peripheral blood after multiple subcutaneous injections; format: in vivo, mice; conditions: dose response
Text: This example is based on a protocol for a 5-day course of once-daily Compound A injections into DBA male mice similar to a G-CSF. […]
[…] At 7 days post initial injection, peripheral blood from 3 mice per group was harvested from the orbital plexus using capillary tubes (VWR) and collected into EDTA-containing tubes (VWR). Blood was also harvested and pooled from 3 naïve mice to serve as a naïve control group.

[3] = system: CFU-GEMM; assay: Mobilization of CFU-GEMM and CFU-GM in db/db mice with high glucose level; format: in vivo; conditions: 5 mg/kg s.c.
Experimental: To test mobilizing effect of Compound A in db/db mice with high level of glucose the following experiment was conducted. BKS.Cg-Dock7m+/+Leprdb/J male mice (10 weeks old Jackson Laboratories, stock #000642) were subcutaneously injected with 0.9% saline (vehicle control), 5 mg/kg Compound C, or 10 mg/kg Compound A (ThinkPeptides) for 5 consecutive days. At 7 days post initial injection, peripheral blood from 3 mice per group was harvested from the orbital plexus using capillary tubes (VWR) and collected into EDTA-containing tubes (BD).

[4] = system: hematopoietic stem cells (HSC) and their hematopoietic progenitors (HPC); assay: Mobilization of stem cells into peripheral blood after single subcutaneous injection (colony-forming assay); format: in vivo; conditions: DBA/2J mice, single 125 μg/kg dose, within one hour of administration
Experimental: Stimulatory doses of Compound A activate quiescent stem cells, induce them to proliferate and egress from bone marrow into peripheral blood. […]
After 1 hour, mice were anesthetized and blood was collected through the orbital sinus with heparinized capillary tubes. To enumerate HSC and HPC in peripheral blood, cells were washed, counted and plated in semi-solid Methylcellulose (Stem cell technology) at 100,000 per dish (5 dishes/group) and placed in CO2 incubator at 37° C. Colony-forming unit-granulocyte erythroid macrophage megakaryocyte (CFU-GEMM) and Colony-forming unit-granulocyte macrophage (CFU-GM) were detected under inverted microscope after 7-10 days in culture.

[5] = system: Caspase-3; assay: Caspase-3 fluorimetric assay in EML cell lysates after HS and SCF deprivation; format: cell-based, murine; conditions: for Caspase-3 proteolytic activity, Exp 1 / Caspase-3 proteolytic activity, Exp 2 / Caspase-3 proteolytic activity, Exp 3 / Caspase-3 proteolytic activity, Sum of 3 experiments: 10 μM present during starvation, starvation control 100%; for Caspase-3 activation induced by HS and SCF deprivation: EML cells, peptide present during starvation
Experimental: To assess possible effect of Compound A and other peptides on Caspase-3 enzymatic activity during apoptosis induced by serum starvation fluorimetric assay Caspase-3 assay was performed according to the manufacturer's instructions (ApoAlert Clontech Mountain view CA).
Cell suspensions after the incubation were divided into two equal tubes (+/−Caspase inhibitor). Cells were centrifuged at 400×g for 5 min and re-suspend in chilled Cell Lysis Buffer with the following incubation on ice for 10 min., cell lysates were centrifugated in a microcentrifuge at max speed for 10 min at 4° C. and transferred into new tubes.
50 μl of 2× Reaction buffer/DTT mix and 1 μl of Caspase inhibitor added to 50 μl of cell lysate (+Inhibitor groups). 1 uL DMSO per 50 μL of 2× Reaction buffer was added to samples without inhibitor.
5 μL of the 1 mM Caspase-3 Substrate (DEVD-AFC; 50 μM final concentration) were added to each tube and incubated at t-37° C. for 1 hr in a water bath. All samples in duplicates were transferred to a 96 well plate. The plates were analyzed on a fluorescence plate reader (Spectramax Gemini.) at a 400 nm excitation and a 505 nm emission, and Caspase-3 activity was expressed relative to the medium control. Free AFC accumulation that resulted from cleavage of the asparatic-AFC bond monitored by fluorimeter and results in duplicates were recalculated according to the free AFC calibration curve.

[6] = system: THP-1 cells; assay: Cytokine production by THP-1 cells in response to LPS; format: cell-based; conditions: 4 hours, levels ranging from 1 μM down to 10 nM
Experimental: THP-1 cells activated with 0.2 μM vitamin-D3 (EMD Biosciences Inc) and cultured in cRPMI [RPMI plus 10% ΔFBS (both Lonza)] were transferred to 24-well dishes. Different concentrations of Compound A or related peptides were added (in triplicate) and the plate placed in a 37° C. incubator.
After 1 hour, crude-LPS from E. coli 0111:B4 (20 ng-100 ng/ml final conc) was added to some wells. Supernatant aliquots were taken after 4 hours and cytokine levels determined using a cytokine bead array kit (BD558277).

[7] = system: CFU-GEMM; assay: Effect of S1P gradient disruption (DOP) on mobilization after multiple subcutaneous injections; format: in vivo; conditions: DBA/2J mice, DOP in glucose drinking water
Experimental: In this experiment the inhibitor of S1P lyase activity, 4-deoxypyridoxine (DOP, Sigma-Aldrich) was administrated to mice in the drinking water in order to test if disruption of S1P gradient has an effect on mobilization induced by Compound A. Fifteen week-old DBA/2J male mice (Jackson Laboratories) were divided into 4 groups of 4 mice each. All Mice received glucose drinking water (10 g/L) throughout the duration of the study. DOP ([…]) was added to the glucose water of two groups. Mice were subcutaneously injected for four consecutive days with 500 μg/kg of Compound A or Saline. At one-hour post injections on day 4, peripheral blood from mice was harvested from the orbital plexus using capillary tubes (VWR) and collected into EDTA-containing tubes (BD). To determine mobilization of colony-forming unit cells out of the peripheral blood, mononuclear cells were plated in mouse methylcellulose complete media (R&D Systems). The cells were placed into 35-mm Petri dishes at 100,000 cells per dish with 5 dishes per group. Cells incubated for 11 days in a 37° C. and 5% CO2 humidified incubator. CFU colonies were then scored using an inverted microscope.

[8] = system: hindlimb ischemia; assay: Unilateral hindlimb ischemia by femoral artery ligation; format: in vivo; conditions: C57/BL6 mice, day 9; peptide 250 μg/kg s.c., DFO 100 mg/kg i.m.
Text: Ligation of the femoral artery in mice is an established model of hindlimb ischemia for testing treatments that might improve revascularization and functional recovery.
A total of 50 C57/B16 8-10 week old female mice were divided into 5 treatment groups (n=10/group).
• 1. Vehicle Control • 2. DFO (intramuscular) DFO (desferrioxamine) has been reported to improve revascularization by augmenting HIF-1α activation in sites of damage, to elicit secretion of local angiogenic factors and chemotactic signals that attract circulating repair-promoting stem and progenitor cells) • 3. DFO (intramuscular)+Compound C (subcutaneous) • 4. Compound A (subcutaneous) • 5. DFO (intramuscular)+Compound A (subcutaneous)
Mice were subjected to unilateral total ligation and transection of the femoral artery under anesthesia (2% Isoflurane mixed with 100% oxygen). A unilateral incision was made over the left medial thigh of each mouse. […]
On day 0, 4, 9, and 14, the condition of left hind limbs were evaluated with Muscle Function Score and Ischemia Score. […]
Recovery of circulation and function in the hindlimb ischemia model involves angiogenesis and revascularization, a process triggered by oxygen deficits. Revascularization was evaluated on day 14 after artery ligation by counting capillaries in cross sectional histology slides prepared from gastrocnemius muscles from both legs. […]

[9] = Cleavage of peptide during 3 hr incubation with murine bone marrow cells (HPLC, MS); format: in vitro ADME; conditions: 100 μg/ml, 37° C., absence of serum
Experimental: B6D2F1 mice (HSD) were treated with 100 mg/kg testosterone propionate 24 hr before being sacrificed, femurs were removed and bone marrow cells (BMC) were flushed from bone marrow cavity. BMC—5×10^6 cells/ml was resuspended in IMDM. Cell suspension was placed into 14-ml Falcon tubes (BD). Peptide Compound A, (Think Peptides) was added to cells at 100 μg/ml concentration. The appropriate volume of IMDM was added to another control supernatant tube containing 1 ml of cells. Cells were incubated for 3 hours at 37° C. After 3 hours of incubation, tubes were centrifuged, supernatants were collected and proteins with Mw>10 KD were eliminated by Amicon filtration at 3000 rpm 25 minutes. 0.5 ml of supernatant containing <10 Kd material was collected from each sample and heat inactivated during 10 min at t-70° C. The following samples were prepared for HPLC and MS: Control supernatant (<10 Kd); Supernatant from cells incubated with Compound A (<10 Kd); Compound A (50 μL) spiked into cell culture medium; and Compound C (50 μL) spiked into cell culture medium.

[10] = biological target: human recombinant DPPIV (Homo sapiens, UniProt P27487); assay: Hydrolysis of N-terminal by recombinant DPPIV; format: in vitro ADME; conditions: previously shown
[11] = biological target: murine recombinant DPPIV (Mus musculus, UniProt P28843); assay: Hydrolysis of N-terminal by recombinant DPPIV; format: in vitro ADME; conditions: previously shown
Chain of murine recombinant DPPIV (P28843 whole entry): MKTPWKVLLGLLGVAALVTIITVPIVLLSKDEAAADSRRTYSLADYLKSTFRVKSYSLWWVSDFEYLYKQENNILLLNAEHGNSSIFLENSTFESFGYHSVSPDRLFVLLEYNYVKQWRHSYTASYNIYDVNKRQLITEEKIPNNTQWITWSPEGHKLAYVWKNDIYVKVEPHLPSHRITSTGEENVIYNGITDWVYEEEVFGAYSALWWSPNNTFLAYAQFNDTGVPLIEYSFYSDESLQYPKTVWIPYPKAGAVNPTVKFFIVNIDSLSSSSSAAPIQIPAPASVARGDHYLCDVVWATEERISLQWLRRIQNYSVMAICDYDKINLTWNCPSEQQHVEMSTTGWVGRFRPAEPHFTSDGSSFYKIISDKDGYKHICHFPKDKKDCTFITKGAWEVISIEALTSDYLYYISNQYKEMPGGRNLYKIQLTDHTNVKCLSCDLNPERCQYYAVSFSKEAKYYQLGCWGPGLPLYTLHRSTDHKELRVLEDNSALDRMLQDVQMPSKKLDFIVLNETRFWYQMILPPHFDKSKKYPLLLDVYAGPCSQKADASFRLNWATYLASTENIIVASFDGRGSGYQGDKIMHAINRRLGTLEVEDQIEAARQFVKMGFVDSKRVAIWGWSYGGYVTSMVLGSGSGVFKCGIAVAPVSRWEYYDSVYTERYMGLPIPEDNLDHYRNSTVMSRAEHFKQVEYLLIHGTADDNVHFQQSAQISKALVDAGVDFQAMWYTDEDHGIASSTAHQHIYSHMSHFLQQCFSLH

Chain of human recombinant DPPIV (P27487 whole entry): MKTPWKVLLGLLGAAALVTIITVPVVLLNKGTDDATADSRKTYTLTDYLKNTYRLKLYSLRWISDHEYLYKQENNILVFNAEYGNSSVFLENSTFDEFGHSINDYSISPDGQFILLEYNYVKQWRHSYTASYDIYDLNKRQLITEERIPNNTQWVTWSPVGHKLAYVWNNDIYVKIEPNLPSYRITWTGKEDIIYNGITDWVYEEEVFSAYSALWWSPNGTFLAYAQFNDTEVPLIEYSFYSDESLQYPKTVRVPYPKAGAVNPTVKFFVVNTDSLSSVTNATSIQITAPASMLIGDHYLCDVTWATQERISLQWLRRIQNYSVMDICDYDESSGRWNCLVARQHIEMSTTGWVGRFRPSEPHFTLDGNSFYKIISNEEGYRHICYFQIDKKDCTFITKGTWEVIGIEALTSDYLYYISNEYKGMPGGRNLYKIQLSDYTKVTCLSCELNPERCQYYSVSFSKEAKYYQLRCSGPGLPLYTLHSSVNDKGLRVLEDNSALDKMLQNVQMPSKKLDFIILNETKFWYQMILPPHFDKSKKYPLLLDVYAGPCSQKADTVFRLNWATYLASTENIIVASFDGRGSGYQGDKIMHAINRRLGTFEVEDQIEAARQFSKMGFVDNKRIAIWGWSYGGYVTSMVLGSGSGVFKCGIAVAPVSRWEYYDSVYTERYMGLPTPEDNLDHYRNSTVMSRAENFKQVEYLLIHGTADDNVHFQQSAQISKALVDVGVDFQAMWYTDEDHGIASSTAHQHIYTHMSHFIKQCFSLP

FPHFDLSHGSAQV [Compound C, included for comparison with the oligopeptides of this invention]
rescue of colony-forming cells (CFUmix/CFU-GEMM) during starvation ([1]; 3 hr HS and SCF deprivation, compared with combined HS and SCF): rescued colony-forming cells | dose with the best effect on CFU-GEMM mobilization [2]: 0.75 mg/kg | CFU-GEMM / progenitor cell mobilization into peripheral blood [3]: did not cause CFU-GEMM mobilization; also recorded: did not mobilize progenitor cells | increase in CFU-GEMM numbers [4]: two-fold | Caspase-3 proteolytic activity, Exp 1 [5]: 66% | Caspase-3 proteolytic activity, Exp 2 [5]: 83% | Caspase-3 proteolytic activity, Exp 3 [5]: 53% | Caspase-3 proteolytic activity, Sum of 3 experiments [5]: 67.3 +/− 15% | Caspase-3 activation induced by HS and SCF deprivation [5]: prevented Caspase-3 activation

FC(F)(F)c1cccc(-c2noc(-c3cc(-c4ccccc4)c(C(F)(F)F)s3)n2)c1 [SEW2871]
rescue of CFU-GEMM [1]: rescued CFU-GEMM

JTE-013
rescue of CFU-GEMM [1]: rescued CFU-GEMM

N-acetyl-Ser-Asp-Lys-Pro (Ac-SDKP) [AcSDKP]
TNFα secretion [6]: strongly inhibited | Caspase-3 proteolytic activity, Exp 1 [5]: 70% | Caspase-3 proteolytic activity, Exp 2 [5]: 84% | Caspase-3 proteolytic activity, Exp 3 [5]: 65% | Caspase-3 proteolytic activity, Sum of 3 experiments [5]: 73 +/− 9.8% | Caspase-3 activation induced by HS and SCF deprivation [5]: prevented Caspase-3 activation

Cc1ncc(CO)c(C)c1O [DOP, 4-deoxypyridoxine]
mobilization of colony forming cells into peripheral blood [7]: decreased mobilization

CCCCCCCCCCCC1N[C@H](C(=O)O)CS1 (stereo partly drawn) [CAY10444]
rescue of CFU-GEMM [1]: rescued CFU-GEMM

CCCCCCCCCCCCC/C=C/[C@@H](O)[C@@H](N)COP(=O)(O)O [Compound S1P, Sphingosine 1-phosphate]
rescue of CFU-GEMM [1]: rescued CFU-GEMM

CC(=O)N(O)CCCCCNC(=O)CCC(=O)N(O)CCCCCNC(=O)CCC(=O)N(O)CCCCCN [DFO, desferrioxamine]
Muscle Function Score [8]: maintained impairment

CC(C)C[C@H](NC(=O)[C@H](CC(=O)O)NC(=O)[C@H](Cc1ccccc1)NC(=O)[C@H](Cc1c[nH]cn1)NC(=O)[C@@H]1CCCN1C(=O)[C@@H](N)Cc1ccccc1)C(=O)N[C@@H](CO)C(=O)N[C@@H](Cc1c[nH]cn1)C(=O)NCC(=O)N[C@@H](CO)C(=O)N[C@@H](C)C(=O)N[C@@H](CCC(N)=O)C(=O)N[C@H](C(=O)N[C@@H](CO)C(=O)N[C@@H](CC(=O)O)C(=O)N[C@@H](CCCCN)C(=O)N1CCC[C@H]1C(=O)O)C(C)C [Compound A, Phe-Pro-His-Phe-Asp-Leu-Ser-His-Gly-Ser-Ala-Gln-Val-Ser-Asp-Lys-Pro] (H-FPHFDLSHGSAQVSDKP-OH; N-terminus and C-terminus assumed)
cleavage after incubation with murine bone marrow cells [9]: proteolyses of the peptide was registered | hydrolysis of N-terminal by human recombinant DPPIV [10]: can be hydrolyzed | hydrolysis of N-terminal by murine recombinant DPPIV [11]: can be hydrolyzed
